Where “and” joins values, the source holds several entries; their conditions need not be identical. Equal entries are not always repeated.
Assays:
PA-TU-8988T cells = assay: soft agar colony formation assay, PA-TU-8988T cells; assay type: cell-based; settings: for IC50: PA-TU-8988T cells, pre-determined by dose-response assay; for Colony count: PA-TU-8988T, duplicate wells
Procedure: The IC50 and EC50 values for each combination partner (a) and (b) with the specific cell lines are determined from the response plot. A dose-response assay for each combination partner and the combination at different concentrations based on the IC50 values of each combination partner was performed. Computed EC50-EC95 values were then generated by a software (as disclosed herein) based on the drug concentration and the respective colony growth numbers. 6. Cell lines used and number of cells seeded per well [table] (1) Base Layer—0.6% Agar per 300 μL per well. Microwave the agar for 1-2 min so that it is completely melted. Add 5.4 ml of the melted agar into 21.6 ml of pre-warmed media (All media and agar preparation is made in excess for 2.5 plates). Aliquot 300 μl of the suspension into each well, avoiding the first and last columns of the plates. Fill the first and last columns of wells with 500 μl of sterile water or phosphate buffered saline. Incubate the plates in 37° C. incubator for 45 min-1 hr to allow agar to solidify. (2) Middle Layer— 0.3% Agar plus corresponding number of cells per well Trypsinize the adherent cells and suspend them in 5 ml of media. Determine the number of cells in the suspension and calculate the volume of cell suspension required for seeding. Mix the agar and media together first, excluding the volume of cell suspension. Add the cell suspension last into the mixture. Mix well and aliquot 250 μl into each well containing the base layer. Incubate the plates in a 37° C. incubator for 1-1.5 hrs to allow the agar to solidify. […] Prepare the required concentration of compounds based on the IC50 values of each drug. (Pre-determine the IC50 values for each drug with the corresponding cell-line using a dose-response assay) Row A& B: Aliquot 250 μl of diluted Drug A per well Row C&D: Aliquot 250 μl of diluted Drug B per well Row E& F: Aliquot 250 μl of diluted Drug A and B mixed at 1:1 ratio for each well Assay Results Analysis Method • 1. Score the colonies after 2 to 3 weeks depending on the colony forming status for different cell line. • 2. Before scoring the colonies, add 35 μl MTT (5 mg/ml) to the wells with cells and incubate at 37° C. for 2-3 hrs depending on the intensity of colour development. • 3. Once the colonies are stained, count the total number of colonies formed using the Oxford Optronix GelCount® instrument. • 4. Average the total number of colonies obtained for each drug dose point and represent it as a fraction over the control. This represents the fraction of colony growth. […] Incorporate the fraction of inhibition and the corresponding dose values into the Chou Talalay Software available online (http://www.combosyn.com/) to obtain the combination index values. • 6. The combination index values will give an indication as to whether the combined drugs are synergistic, antagonistic or additive in the treated cells, as shown in Table 2 below. FIG. 12 illustrates a dose-response assay plate containing PA-TU-8988T cells (Test 1) after testing compounds at different concentrations based on the IC50 values of each compound. […] is a cell line established from pancreatic adenocarcinoma (pancreatic cancer).

CFPAC-1 cells = assay: soft agar colony formation assay, CFPAC-1 cells; assay type: cell-based; settings: for Colony count: duplicate wells; for IC50: CFPAC-1 cells, pre-determined by dose-response assay
Procedure: The IC50 and EC50 values for each combination partner (a) and (b) with the specific cell lines are determined from the response plot. A dose-response assay for each combination partner and the combination at different concentrations based on the IC50 values of each combination partner was performed. Computed EC50-EC95 values were then generated by a software (as disclosed herein) based on the drug concentration and the respective colony growth numbers.
6. Cell lines used and number of cells seeded per well
(1) Base Layer—0.6% Agar per 300 μL per well.
Microwave the agar for 1-2 min so that it is completely melted. Add 5.4 ml of the melted agar into 21.6 ml of pre-warmed media (All media and agar preparation is made in excess for 2.5 plates). Aliquot 300 μl of the suspension into each well, avoiding the first and last columns of the plates. Fill the first and last columns of wells with 500 μl of sterile water or phosphate buffered saline. Incubate the plates in 37° C. incubator for 45 min-1 hr to allow agar to solidify.
(2) Middle Layer— 0.3% Agar plus corresponding number of cells per well
Trypsinize the adherent cells and suspend them in 5 ml of media. Determine the number of cells in the suspension and calculate the volume of cell suspension required for seeding. Mix the agar and media together first, excluding the volume of cell suspension. Add the cell suspension last into the mixture. Mix well and aliquot 250 μl into each well containing the base layer. Incubate the plates in a 37° C. incubator for 1-1.5 hrs to allow the agar to solidify.
Prepare the required concentration of compounds based on the IC50 values of each drug.
(Pre-determine the IC50 values for each drug with the corresponding cell-line using a dose-response assay)
Row A& B: Aliquot 250 μl of diluted Drug A per well
Row C&D: Aliquot 250 μl of diluted Drug B per well
Row E& F: Aliquot 250 μl of diluted Drug A and B mixed at 1:1 ratio for each well
Assay Results Analysis Method • 1. Score the colonies after 2 to 3 weeks depending on the colony forming status for different cell line. • 2. Before scoring the colonies, add 35 μl MTT (5 mg/ml) to the wells with cells and incubate at 37° C. for 2-3 hrs depending on the intensity of colour development. • 3. Once the colonies are stained, count the total number of colonies formed using the Oxford Optronix GelCount® instrument. • 4. Average the total number of colonies obtained for each drug dose point and represent it as a fraction over the control. This represents the fraction of colony growth. […] Incorporate the fraction of inhibition and the corresponding dose values into the Chou Talalay Software available online (http://www.combosyn.com/) to obtain the combination index values. • 6. The combination index values will give an indication as to whether the combined drugs are synergistic, antagonistic or additive in the treated cells, as shown in Table 2 below.
FIG. 8 illustrates a dose-response assay plate containing CFPAC-1 cells (Test 1) after testing compounds at different concentrations based on the IC50 values of each compound. CFPAC-1 is a cell line established from cystic fibrosis and pancreatic ductal adenocarcinoma.

[1] = Test 1, 0.25x IC50: dose Olaparib 0.2525, Ex 1 0.275, combination both 1:1
[2] = Test 1, 0.5x IC50: dose Olaparib 0.505, Ex 1 0.55, combination both 1:1
[3] = Test 1, 1x IC50: dose Olaparib 1.01, Ex 1 1.1, combination both 1:1
[4] = Test 1, 2x IC50: dose Olaparib 2.02, Ex 1 2.2, combination both 1:1
[5] = Test 1, 4x IC50: dose Olaparib 4.04, Ex 1 4.4, combination both 1:1
[6] = Test 2, 0.25x IC50: dose Olaparib 0.2525, Ex 1 0.275, combination both 1:1
[7] = Test 2, 0.5x IC50: dose Olaparib 0.505, Ex 1 0.55, combination both 1:1
[8] = Test 2, 1x IC50: dose Olaparib 1.01, Ex 1 1.1, combination both 1:1
[9] = Test 2, 2x IC50: dose Olaparib 2.02, Ex 1 2.2, combination both 1:1
[10] = Test 2, 4x IC50: dose Olaparib 4.04, Ex 1 4.4, combination both 1:1
[11] = CFPAC-1, Test 1, 0.25x IC50: dose Olaparib 1.5625, Ex 1 0.00675, combination both 1:1
[12] = CFPAC-1, Test 1, 0.5x IC50: dose Olaparib 3.125, Ex 1 0.0135, combination both 1:1
[13] = CFPAC-1, Test 1, 1x IC50: dose Olaparib 6.25, Ex 1 0.027, combination both 1:1
[14] = CFPAC-1, Test 1, 2x IC50: dose Olaparib 12.5, Ex 1 0.054, combination both 1:1
[15] = CFPAC-1, Test 1, 4x IC50: dose Olaparib 25, Ex 1 0.108, combination both 1:1
[16] = CFPAC-1, Test 2, 0.25x IC50: dose Olaparib 1.5625, Ex 1 0.00675, combination both 1:1
[17] = CFPAC-1, Test 2, 1x IC50: dose Olaparib 6.25, Ex 1 0.027, combination both 1:1
[18] = CFPAC-1, Test 2, 2x IC50: dose Olaparib 12.5, Ex 1 0.054, combination both 1:1
[19] = CFPAC-1, Test 2, 4x IC50: dose Olaparib 25, Ex 1 0.108, combination both 1:1

Structure (SMILES)	Colony count (PA-TU-8988T cells; [1])	Colony count (PA-TU-8988T cells; [2])	Colony count (PA-TU-8988T cells; [3])	Colony count (PA-TU-8988T cells; [4])	Colony count (PA-TU-8988T cells; [5])	Colony count (PA-TU-8988T cells; [6])	Colony count (PA-TU-8988T cells; [7])	Colony count (PA-TU-8988T cells; [8])	Colony count (PA-TU-8988T cells; [9])	Colony count (PA-TU-8988T cells; [10])	Colony count (CFPAC-1 cells; [11])	Colony count (CFPAC-1 cells; [12])	Colony count (CFPAC-1 cells; [13])	Colony count (CFPAC-1 cells; [14])	Colony count (CFPAC-1 cells; [15])	Colony count (CFPAC-1 cells; [16])	Colony count (CFPAC-1 cells; [17])	Colony count (CFPAC-1 cells; [18])	Colony count (CFPAC-1 cells; [19])	other results
Cn1c(=O)c2c(ncn2CC(=O)Nc2ccc(-c3ccccc3)nn2)n(C)c1=O [Ex 1, 2-(1,3-dimethyl-2,6-dioxo-2,3-dihydro-1H-purin-7 (6H)-yl)-N-(6-phenylpyridazin-3-yl)acetamide]	420 and 494	343 and 488	215 and 393	250 and 311	212 and 296	200 and 237	143 and 227	156 and 209	155 and 215	125 and 186	441 and 464	445 and 505	386 and 412	346 and 322	315 and 320	676 and 624	649 and 563	581 and 588	536 and 527	IC50 (PA-TU-8988T cells): 1100 nM; IC50 (CFPAC-1 cells): 27 nM
O=C(c1cc(Cc2n[nH]c(=O)c3ccccc23)ccc1F)N1CCN(C(=O)C2CC2)CC1 [Olaparib, reference compound]	537 and 426	425 and 331	398 and 327	411 and 325	362 and 307	222 and 170	180 and 155	146 and 150	136 and 143	180 and 125	441 and 429	314 and 309	259 and 289	194 and 196	80 and 97	586 and 545	328 and 371	254 and 255	116 and 111	IC50 (PA-TU-8988T cells; Homo sapiens, PaTu 8988t): 1010 nM; Colony count (CFPAC-1 cells; CFPAC-1, Test 2, 0.5x IC50: dose Olaparib 3.125, Ex 1 0.0135, combination both 1:1): 439 and 442; IC50 (CFPAC-1 cells; Homo sapiens): 6250 nM
